Test system: TNF-α production in LPS-stimulated RAW264.7 cells
Test: Cytokine production assay (ELISA), TNF-α
Type: cell-based, mouse
Description: RAW264.7 cells were seeded at 3 × 10^5 cells/well in a 48-well microplate and incubated overnight.The cells were pre-treated with the different concentrations of the test compunds (3, 7.5, 10 or 30 µM) for 30 min before the stimulation with LPS (1 µg/mL). According to the protocol of the manufacturer, supernatants were harvested at the 24th hour for the assay of TNF-α or IL-6 with ELISA kits (BD Biosciences, San Diego, CA, USA). Briefly, 100 µL of biotinylated antibody reagent and the culture supernatants were added to anti-mouse TNF-α or IL-6 precoated 96-well plates, and the plates were incubated for 2 h at RT. The plate was washed with a washing buffer and subsequently incubated with 100 µL of the streptavidin-HRP solution for 1 h at RT. The plate was washed, and incubated with 100 µL of TMB substrate solution for 30 min at RT in the dark. The reaction was stopped by adding 50 µL of stop solution, and then the absorbance was measured at 450 nm by a plate reader. A standard curve was produced for each assay plate using serially diluted recombinant IL-6.

COc1cc(Cn2c(=O)c3nnc(C(N)=O)n3c3ccccc32)cc(OC)c1OC [6p, 5-(3,4,5-trimethoxybenzyl)-4-oxo-4,5-dihydro-[1,2, 4]triazolo[4,3-a]quinoxaline-1-carboxamide]
production of TNF-α (3 µM, p < .001): significantly inhibited
LPS-induced increase in TNF-α levels (LPS 1 µg/mL, 24 h, different concentrations): inhibited in a concentration-dependent manner

From paper PMC6853232, “Discovery and evaluation of novel synthetic 5-alkyl-4-oxo-4,5-dihydro-[1,2,4]triazolo[4,3-a]quinoxaline-1-carbox-amide derivatives as anti-inflammatory agents” (Journal of Enzyme Inhibition and Medicinal Chemistry, 2019)
